Experiment: xn = mol fraction of the nth substance listed
Conditions: 298.15 K, 100 kPa

CCCCCCCC[N+]1(C)CCCC1.O=S(=O)([N-]S(=O)(=O)C(F)(F)F)C(F)(F)F + CCCCOC(C)=O
Conditions	electrical conductivity [S/m]	viscosity [mPa·s]
x2 = 0	0.082	138.2
x2 = 0.481	0.256	–
x2 = 0.4969	–	17.37
x2 = 0.6954	–	7.1
x2 = 0.7372	0.361	–
x2 = 0.7499	–	5.07
x2 = 0.8031	–	3.42
x2 = 0.8484	–	2.5
x2 = 0.8928	0.242	–
x2 = 0.9016	–	1.732
x2 = 0.9431	–	1.202
x2 = 0.9456	0.131	–

CCCCCCCC[n+]1ccccc1.O=S(=O)([N-]S(=O)(=O)C(F)(F)F)C(F)(F)F + CCCCOC(C)=O
Conditions	electrical conductivity [S/m]	viscosity [mPa·s]
x2 = 0	0.097	104.1
x2 = 0.2414	0.166	–
x2 = 0.2556	–	49.6
x2 = 0.481	0.271	–
x2 = 0.501	–	18.43
x2 = 0.6984	–	6.82
x2 = 0.7372	0.384	–
x2 = 0.7522	–	4.87
x2 = 0.7923	0.377	–
x2 = 0.7996	–	3.57
x2 = 0.8427	0.333	–
x2 = 0.8487	–	2.47
x2 = 0.8928	0.258	–
x2 = 0.8996	–	1.732
x2 = 0.9456	0.124	–
x2 = 0.9493	–	1.227

CCCCCCCCn1cc[n+](C)c1.O=S(=O)([N-]S(=O)(=O)C(F)(F)F)C(F)(F)F + CCCCOC(C)=O
Conditions	electrical conductivity [S/m]	viscosity [mPa·s]
x2 = 0.2622	–	44.2
x2 = 0.481	0.307	–
x2 = 0.5001	–	17.1
x2 = 0.6824	0.407	–
x2 = 0.7372	0.414	–
x2 = 0.7503	–	4.99
x2 = 0.7923	0.406	–
x2 = 0.797	–	3.47
x2 = 0.8503	–	2.53
x2 = 0.8928	0.279	–
x2 = 0.8976	–	1.73
x2 = 0.9305	–	1.308
x2 = 0.9456	0.19	–

CCCCOC(C)=O + CCCC[n+]1ccn(C)c1.O=S(=O)([N-]S(=O)(=O)C(F)(F)F)C(F)(F)F
Conditions	electrical conductivity [S/m]	viscosity [mPa·s]
x1 = 0.2414	0.529	26
x1 = 0.481	0.67	11.88
x1 = 0.6824	0.725	4.9
x1 = 0.7372	0.704	3.42
x1 = 0.7923	0.654	2.65
x1 = 0.8427	0.535	2.043
